Source: ChEMBL document CHEMBL4334438, “Discovery of novel glycogen synthase kinase-3α inhibitors: Structure-based virtual screening, preliminary SAR and biological evaluation for treatment of acute myeloid leukemia” (Eur J Med Chem, 2019)

Assays:
[1] = target: Activated CDC42 kinase 1 (Homo sapiens) (UniProt Q07912); assay: Inhibition of human ACK1 (1 to 389 residues) assessed as residual activity at 1 uM using EFPIYDFLPAKKK as substrate incubated for 40 mins in presence of [gamma-33ATP] by scintillation counting based radiometry assay relative to control
Sequence of Activated CDC42 kinase 1 (Homo sapiens) (Q07912 whole entry, looked up, the tested form may be a part): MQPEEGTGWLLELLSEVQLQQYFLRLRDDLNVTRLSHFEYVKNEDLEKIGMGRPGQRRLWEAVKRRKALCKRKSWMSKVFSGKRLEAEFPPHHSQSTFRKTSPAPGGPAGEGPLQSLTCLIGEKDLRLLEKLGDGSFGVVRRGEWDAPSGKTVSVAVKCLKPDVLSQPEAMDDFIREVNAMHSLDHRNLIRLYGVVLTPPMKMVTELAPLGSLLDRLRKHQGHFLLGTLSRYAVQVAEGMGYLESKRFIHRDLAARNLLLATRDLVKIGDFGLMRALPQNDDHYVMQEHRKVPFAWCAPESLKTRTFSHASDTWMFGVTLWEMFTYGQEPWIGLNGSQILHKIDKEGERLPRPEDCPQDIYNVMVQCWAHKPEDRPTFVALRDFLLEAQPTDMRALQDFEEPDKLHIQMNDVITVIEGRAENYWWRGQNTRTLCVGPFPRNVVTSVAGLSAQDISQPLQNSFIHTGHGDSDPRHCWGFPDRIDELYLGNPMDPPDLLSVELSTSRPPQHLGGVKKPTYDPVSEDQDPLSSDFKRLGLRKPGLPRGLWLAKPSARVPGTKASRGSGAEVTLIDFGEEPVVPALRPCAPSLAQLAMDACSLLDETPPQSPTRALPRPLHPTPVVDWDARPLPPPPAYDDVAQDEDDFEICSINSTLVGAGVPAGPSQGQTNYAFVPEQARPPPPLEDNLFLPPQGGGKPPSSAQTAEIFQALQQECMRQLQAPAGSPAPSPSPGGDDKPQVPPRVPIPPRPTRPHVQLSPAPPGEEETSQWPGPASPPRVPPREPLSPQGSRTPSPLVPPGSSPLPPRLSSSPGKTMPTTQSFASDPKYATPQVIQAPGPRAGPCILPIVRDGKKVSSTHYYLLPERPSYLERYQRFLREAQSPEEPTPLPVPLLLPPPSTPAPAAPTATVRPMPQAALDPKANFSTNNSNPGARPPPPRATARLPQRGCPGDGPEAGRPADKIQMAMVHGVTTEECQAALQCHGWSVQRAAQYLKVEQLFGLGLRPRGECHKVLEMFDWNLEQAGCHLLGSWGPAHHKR

[2] = target: Activin receptor type-2A (Homo sapiens) (UniProt P27037); assay: Inhibition of human ACTR2A (162 to end residues) assessed as residual activity at 1 uM using casein as substrate incubated for 120 mins in presence of [gamma-33ATP] by scintillation counting based radiometry assay relative to control
[3] = target: 5'-AMP-activated protein kinase catalytic subunit alpha-1 (Homo sapiens) (UniProt Q13131); assay: Inhibition of recombinant full length human AMPKalpha1 assessed as residual activity at 1 uM using AMARAASAAALAR as substrate incubated for 40 mins in presence of [gamma-33ATP] by scintillation counting based radiometry assay relative to control
[4] = test system: Calcium/calmodulin-dependent protein kinase kinase 2 (Homo sapiens), Q96RR4 [T85S]; assay: Inhibition of recombinant full length human CaMKK2 T85S mutant assessed as residual activity at 1 uM […] incubated for 40 mins in presence of [gamma-33ATP] by scintillation counting based radiometry assay relative to control
[5] = target: CDK12/Cyclin K (Homo sapiens) (UniProt O75909+Q9NYV4); assay: Inhibition of recombinant full length human CDK12/cyclinK assessed as residual activity at 1 uM using RSRSRSRSRSRSRSR as substrate incubated for 120 mins in presence of [gamma-33ATP] by scintillation counting based radiometry assay relative to control; format: protein-complex assay
[6] = target: Cyclin-dependent kinase 14/Cyclin-Y (Homo sapiens) (UniProt O94921+Q8ND76); assay: Inhibition of recombinant full length human CDK14/cyclinY assessed as residual activity at 1 uM in presence of [gamma-33ATP] by scintillation counting based radiometry assay relative to control; format: protein-complex assay
[7] = target: Ephrin type-A receptor 7 (Homo sapiens) (UniProt Q15375); assay: Inhibition of recombinant human EphA7 (613 to 909 residues) assessed as residual activity at 1 uM using KTFCGTPEYLAPEVRREPRILSEEEQEMFRDFDYIADWC as substrate at 40 mins in presence of [gamma-33ATP] by scintillation counting based radiometry assay relative to control
[8] = target: Receptor tyrosine-protein kinase erbB-4 (Homo sapiens) (UniProt Q15303); assay: Inhibition of recombinant human ERBB4 (706 to 991 residues) assessed as residual activity at 1 uM using poly(Glu, Tyr) 4:1 as substrate at 40 mins in presence of [gamma-33ATP] by scintillation counting based radiometry assay relative to control
[9] = target: Rhodopsin kinase GRK1 (Homo sapiens) (UniProt Q15835); assay: Inhibition of recombinant full length human GRK1 assessed as residual activity at 1 uM using KKKKERLLDDRHDSGLDSMKDEE as substrate at 40 mins in presence of [gamma-33ATP] by scintillation counting based radiometry assay relative to control
Sequence of Rhodopsin kinase GRK1 (Homo sapiens) (Q15835 whole entry, the tested form may be a part): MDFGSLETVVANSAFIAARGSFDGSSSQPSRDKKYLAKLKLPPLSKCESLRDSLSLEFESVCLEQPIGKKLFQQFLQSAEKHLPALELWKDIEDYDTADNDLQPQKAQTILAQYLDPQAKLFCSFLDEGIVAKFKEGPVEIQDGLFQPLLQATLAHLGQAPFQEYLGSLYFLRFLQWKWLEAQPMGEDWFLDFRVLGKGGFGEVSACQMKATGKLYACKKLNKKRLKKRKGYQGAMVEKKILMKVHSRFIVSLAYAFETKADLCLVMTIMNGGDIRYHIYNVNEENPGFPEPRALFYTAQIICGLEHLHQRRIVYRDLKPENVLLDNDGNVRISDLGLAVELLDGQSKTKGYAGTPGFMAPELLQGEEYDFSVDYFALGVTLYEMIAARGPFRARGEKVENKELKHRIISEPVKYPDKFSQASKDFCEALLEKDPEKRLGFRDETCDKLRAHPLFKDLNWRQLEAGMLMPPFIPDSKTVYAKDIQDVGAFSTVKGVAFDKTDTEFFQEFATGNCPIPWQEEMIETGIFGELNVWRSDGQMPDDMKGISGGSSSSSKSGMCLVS

[10] = target: LIM domain kinase 1 (Homo sapiens) (UniProt P53667); assay: Inhibition of recombinant human LIMK1 (285 to 638 residues) assessed as residual activity at 1 uM using cofilin as substrate after 40 mins in presence of [gamma-33ATP] by scintillation counting based radiometry assay relative to control
[11] = target: Serine/threonine-protein kinase STK11 (Homo sapiens) (UniProt Q15831); assay: Inhibition of recombinant human LKB1 assessed as residual activity at 1 uM using LSNLYHQGKFLQTFCGSPLYRRR as substrate after 40 mins in presence of [gamma-33ATP] by scintillation counting based radiometry assay relative to control
[12] = target: Serine/threonine-protein kinase MRCK beta (Homo sapiens) (UniProt Q9Y5S2); assay: Inhibition of recombinant human MRCKbeta (1 to 473 residues) assessed as residual activity at 1 uM using KKRNRTLTV as substrate measured after 40 mins in presence of [gamma33P]ATP by scintillation counting method relative to control
[13] = target: Muscle, skeletal receptor tyrosine-protein kinase (Homo sapiens) (UniProt O15146); assay: Inhibition of recombinant human MUSK (530 to end residues) assessed as residual activity at 1 uM using myelin basic protein as substrate measured after 40 mins in presence of [gamma33P]ATP by scintillation counting method relative to control
Sequence of Muscle, skeletal receptor tyrosine-protein kinase (Homo sapiens) (O15146 whole entry): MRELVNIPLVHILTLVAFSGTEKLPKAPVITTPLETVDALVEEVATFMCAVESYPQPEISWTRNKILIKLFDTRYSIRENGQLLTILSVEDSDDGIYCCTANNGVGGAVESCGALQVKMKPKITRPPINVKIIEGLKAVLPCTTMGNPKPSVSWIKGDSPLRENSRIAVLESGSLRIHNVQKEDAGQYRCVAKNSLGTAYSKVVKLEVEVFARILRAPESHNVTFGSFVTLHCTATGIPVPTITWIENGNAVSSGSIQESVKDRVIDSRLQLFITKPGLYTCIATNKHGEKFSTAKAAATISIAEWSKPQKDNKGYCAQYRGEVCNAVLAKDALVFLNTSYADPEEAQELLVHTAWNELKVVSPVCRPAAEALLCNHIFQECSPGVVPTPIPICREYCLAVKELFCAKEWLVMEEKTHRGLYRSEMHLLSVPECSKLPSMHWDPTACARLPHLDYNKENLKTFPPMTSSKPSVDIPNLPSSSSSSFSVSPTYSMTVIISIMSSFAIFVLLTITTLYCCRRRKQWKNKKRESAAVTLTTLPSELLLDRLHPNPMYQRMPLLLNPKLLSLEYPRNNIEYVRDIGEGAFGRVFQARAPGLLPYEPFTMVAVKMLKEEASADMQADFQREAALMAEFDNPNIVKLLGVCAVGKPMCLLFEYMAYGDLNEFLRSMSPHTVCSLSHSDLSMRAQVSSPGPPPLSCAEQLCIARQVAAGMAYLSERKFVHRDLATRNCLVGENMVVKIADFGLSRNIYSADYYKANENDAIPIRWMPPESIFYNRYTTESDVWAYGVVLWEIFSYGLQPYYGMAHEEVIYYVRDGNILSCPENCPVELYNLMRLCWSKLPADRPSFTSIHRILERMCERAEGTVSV

[14] = target: Myosin light chain kinase 2, skeletal/cardiac muscle (Homo sapiens) (UniProt Q9H1R3); assay: Inhibition of recombinant full-length human MYLK2 at 1 uM using KKLNRTLSFAEPG as substrate measured after 40 mins in presence of [gamma33P]ATP by scintillation counting method relative to control; design: scale not given: the % may be the effect or the level left
Sequence of Myosin light chain kinase 2, skeletal/cardiac muscle (Homo sapiens) (Q9H1R3 whole entry): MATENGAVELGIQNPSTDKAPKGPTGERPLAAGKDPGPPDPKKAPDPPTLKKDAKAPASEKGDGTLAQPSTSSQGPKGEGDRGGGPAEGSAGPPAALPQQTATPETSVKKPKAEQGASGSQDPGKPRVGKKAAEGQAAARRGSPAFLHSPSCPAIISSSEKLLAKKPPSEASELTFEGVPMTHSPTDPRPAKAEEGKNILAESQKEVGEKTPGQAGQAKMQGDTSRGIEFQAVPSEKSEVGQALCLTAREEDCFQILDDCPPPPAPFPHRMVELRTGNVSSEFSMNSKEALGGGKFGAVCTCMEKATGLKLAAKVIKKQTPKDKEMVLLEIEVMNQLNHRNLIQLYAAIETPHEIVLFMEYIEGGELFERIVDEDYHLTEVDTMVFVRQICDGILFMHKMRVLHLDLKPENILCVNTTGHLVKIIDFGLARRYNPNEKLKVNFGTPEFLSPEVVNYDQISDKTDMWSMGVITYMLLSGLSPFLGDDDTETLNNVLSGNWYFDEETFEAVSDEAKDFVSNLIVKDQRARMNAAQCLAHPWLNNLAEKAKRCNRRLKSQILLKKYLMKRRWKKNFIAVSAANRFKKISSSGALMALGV

[15] = test system: Platelet-derived growth factor receptor alpha (Homo sapiens), P16234 [D842V]; assay: Inhibition of human PDGFRalpha D842V mutant (550 to end residues) assessed as residual activity at 1 uM using GGMEDIYFEFMGGKKK as substrate measured after 40 mins in presence of [gamma33P]ATP by scintillation counting method relative to control
[16] = target: [Pyruvate dehydrogenase (acetyl-transferring)] kinase isozyme 4, mitochondrial (Homo sapiens) (UniProt Q16654); assay: Inhibition of recombinant human full length PDHK4 assessed as residual activity at 1 uM using KKKYHGHSMSDPGVSYRT as substrate measured after 40 mins in presence of [gamma33P]ATP by scintillation counting method relative to control
[17] = target: Interferon-induced, double-stranded RNA-activated protein kinase (Homo sapiens) (UniProt P19525); assay: Inhibition of recombinant human PKR (252 to end residues) assessed as residual activity at 1 uM using RSRSRSRSRSRSRSR as substrate measured after 40 mins in presence of [gamma33P]ATP by scintillation counting method relative to control
Sequence of Interferon-induced, double-stranded RNA-activated protein kinase (Homo sapiens) (P19525 whole entry): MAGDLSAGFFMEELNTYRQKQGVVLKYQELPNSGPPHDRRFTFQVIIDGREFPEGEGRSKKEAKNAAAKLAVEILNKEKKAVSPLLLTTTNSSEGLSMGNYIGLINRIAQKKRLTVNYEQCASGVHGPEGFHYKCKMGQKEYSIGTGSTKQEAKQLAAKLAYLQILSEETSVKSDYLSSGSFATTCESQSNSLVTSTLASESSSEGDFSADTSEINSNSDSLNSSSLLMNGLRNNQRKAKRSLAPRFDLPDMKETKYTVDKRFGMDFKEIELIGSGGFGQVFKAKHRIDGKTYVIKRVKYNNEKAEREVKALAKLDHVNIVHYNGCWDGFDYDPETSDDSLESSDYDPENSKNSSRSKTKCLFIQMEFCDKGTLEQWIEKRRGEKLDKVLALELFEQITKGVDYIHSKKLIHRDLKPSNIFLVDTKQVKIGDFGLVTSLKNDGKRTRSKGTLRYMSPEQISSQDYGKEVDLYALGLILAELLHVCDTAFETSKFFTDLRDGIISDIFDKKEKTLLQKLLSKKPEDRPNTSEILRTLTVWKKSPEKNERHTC

[18] = target: Macrophage-stimulating protein receptor (Homo sapiens) (UniProt Q04912); assay: Inhibition of recombinant human Ron (983 to end residues) assessed as residual activity at 1 uM using GGMEDIYFEFMGGKKK as substrate measured after 40 mins in presence of [gamma33P]ATP by scintillation counting method relative to control
Sequence of Macrophage-stimulating protein receptor (Homo sapiens) (Q04912 25-304 limits assumed): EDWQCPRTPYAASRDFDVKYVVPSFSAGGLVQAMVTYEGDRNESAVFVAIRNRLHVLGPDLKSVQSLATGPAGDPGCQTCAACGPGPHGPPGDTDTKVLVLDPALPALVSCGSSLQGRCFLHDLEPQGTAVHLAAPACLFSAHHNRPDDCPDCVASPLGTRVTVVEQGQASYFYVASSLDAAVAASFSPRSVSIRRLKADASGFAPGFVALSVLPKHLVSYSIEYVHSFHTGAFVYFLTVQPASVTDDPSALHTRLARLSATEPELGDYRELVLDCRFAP
Sequence of Macrophage-stimulating protein receptor (Homo sapiens) (Q04912 310-1400 limits assumed): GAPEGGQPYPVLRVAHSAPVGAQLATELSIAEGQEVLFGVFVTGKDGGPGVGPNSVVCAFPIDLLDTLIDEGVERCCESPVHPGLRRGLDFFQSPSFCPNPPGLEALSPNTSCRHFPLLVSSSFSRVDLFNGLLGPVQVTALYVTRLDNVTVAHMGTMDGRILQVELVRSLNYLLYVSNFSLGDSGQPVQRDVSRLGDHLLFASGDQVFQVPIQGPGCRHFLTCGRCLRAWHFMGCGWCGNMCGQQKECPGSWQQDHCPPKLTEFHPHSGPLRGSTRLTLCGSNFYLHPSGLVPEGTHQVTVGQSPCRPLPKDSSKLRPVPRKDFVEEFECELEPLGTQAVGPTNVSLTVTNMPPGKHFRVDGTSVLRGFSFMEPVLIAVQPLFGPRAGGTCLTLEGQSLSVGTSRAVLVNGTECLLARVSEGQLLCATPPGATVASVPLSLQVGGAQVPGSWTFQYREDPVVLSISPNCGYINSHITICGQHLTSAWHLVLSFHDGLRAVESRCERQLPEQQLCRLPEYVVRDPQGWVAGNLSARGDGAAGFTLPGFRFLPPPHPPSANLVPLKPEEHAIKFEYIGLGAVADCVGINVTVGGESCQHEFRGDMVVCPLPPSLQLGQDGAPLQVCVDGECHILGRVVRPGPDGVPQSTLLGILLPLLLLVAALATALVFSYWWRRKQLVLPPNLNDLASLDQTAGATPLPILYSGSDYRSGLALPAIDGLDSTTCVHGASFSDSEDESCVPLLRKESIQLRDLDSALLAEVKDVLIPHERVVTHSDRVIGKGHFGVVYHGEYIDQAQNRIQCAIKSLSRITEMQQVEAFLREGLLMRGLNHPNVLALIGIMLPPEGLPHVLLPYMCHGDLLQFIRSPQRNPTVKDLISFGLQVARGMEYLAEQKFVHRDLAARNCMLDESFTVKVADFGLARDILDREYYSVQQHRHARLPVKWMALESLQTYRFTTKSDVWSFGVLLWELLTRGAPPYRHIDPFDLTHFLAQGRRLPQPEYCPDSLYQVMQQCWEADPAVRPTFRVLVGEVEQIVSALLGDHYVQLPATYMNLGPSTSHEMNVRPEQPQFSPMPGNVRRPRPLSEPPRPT

[19] = target: Ribosomal protein S6 kinase alpha-2 (Homo sapiens) (UniProt Q15349); assay: Inhibition of recombinant full length human Rsk3 assessed as residual activity at 1 uM using KKKNRTLSVA as substrate measured after 40 mins in presence of [gamma33P]ATP by scintillation counting method relative to control
[20] = target: Mitogen-activated protein kinase 14 (Homo sapiens) (UniProt Q16539); assay: Inhibition of recombinant human full length SAPK2a assessed as residual activity at 1 uM using myelin basic protein as substrate measured after 40 mins in presence of [gamma33P]ATP by scintillation counting method relative to control
[21] = target: Serine/threonine-protein kinase tousled-like 2 (Homo sapiens) (UniProt Q86UE8); assay: Inhibition of human TLK2 (387 to end residues) assessed as residual activity at 1 uM using casein as substrate measured after 40 mins in presence of [gamma33P]ATP by scintillation counting method relative to control

SMILES | Activity [1] | Activity [2] | Activity [3] | Activity [4] | Activity [5] | Activity [6] | Activity [7] | Activity [8] | Activity [9] | Activity [10] | Activity [11] | Activity [12] | Activity [13] | Activity [14] | Activity [15] | Activity [16] | Activity [17] | Activity [18] | Activity [19] | Activity [20] | other results
C=CCOC(=O)c1cc(-c2ccc(/C=C3/NC(=S)NC3=O)o2)ccc1Cl | 96% | 100% | 24% | 94% | 96% | 91% | 99% | 90% | 104% | 96% | 93% | 110% | 96% | 92% | 100% | 100% | 98% | 106% | 112% | 101% | Activity [21]: 106%
N=C1NC(=O)/C(=C\c2ccc(-c3cccc([N+](=O)[O-])c3)o2)S1 | 93% | 99% | 44% | 92% | 98% | 84% | 101% | 99% | 97% | 100% | 37% | 94% | 114% | 98% | 97% | 103% | 98% | 104% | 96% | 100% | Activity [21]: 93%
